Experiments:
Format in all cases: in vivo
[1] = system: barnyardgrass (Echinochloa crus-galli); assay: Test A preemergence, barnyardgrass; details: 0 to 100 scale
Summary of the method: (§1)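 Scores run from 0, no effect, to 100, complete control, assigned visually after roughly 10 d in the greenhouse. Preemergence treatment is a directed spray onto sown loam–sand soil; postemergence treatment targets plants 2 to 10 cm tall.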

kochia (Kochia scoparia) [2] = assay: Test A preemergence, kochia; details: 0 to 100 scale
Summary of the method: as §1

[3] = system: ragweed (common ragweed, Ambrosia elatior); assay: Test A preemergence, ragweed; details: 0 to 100 scale
Summary of the method: as §1

[4] = system: ryegrass, It. (Italian ryegrass, Lolium multiflorum); assay: Test A preemergence, ryegrass, It.; details: 0 to 100 scale
Summary of the method: as §1

[5] = system: foxtail, giant (giant foxtail, Setaria faberii); assay: Test A preemergence, foxtail, giant; details: 0 to 100 scale
Summary of the method: as §1

[6] = system: pigweed (Amaranthus retroflexus); assay: Test A preemergence, pigweed; details: 0 to 100 scale
Summary of the method: as §1

[7] = system: barnyardgrass (Echinochloa crus-galli); assay: Test A postemergence, barnyardgrass; details: 0 to 100 scale
Summary of the method: as §1

kochia (Kochia scoparia) [8] = assay: Test A postemergence, kochia; details: 0 to 100 scale
Summary of the method: as §1

[9] = system: ragweed (common ragweed, Ambrosia elatior); assay: Test A postemergence, ragweed; details: 0 to 100 scale
Summary of the method: as §1

[10] = system: ryegrass, It. (Italian ryegrass, Lolium multiflorum); assay: Test A postemergence, ryegrass, It.; details: 0 to 100 scale
Summary of the method: as §1

[11] = system: foxtail, giant (giant foxtail, Setaria faberii); assay: Test A postemergence, foxtail, giant; details: 0 to 100 scale
Summary of the method: as §1

[12] = system: wheat (Triticum aestivum); assay: Test A postemergence, wheat; details: 0 to 100 scale
Summary of the method: as §1

corn (Zea mays) = assay: Test A postemergence, corn; details: 0 to 100 scale
Summary of the method: as §1

[13] = system: pigweed (Amaranthus retroflexus); assay: Test A postemergence, pigweed; details: 0 to 100 scale
Summary of the method: as §1

[14] = system: blackgrass (Alopecurus myosuroides); assay: Test A postemergence, blackgrass; details: 0 to 100 scale
Summary of the method: as §1

[15] = system: galium (catchweed bedstraw, Galium aparine); assay: Test A postemergence, galium; details: 0 to 100 scale
Summary of the method: as §1

[16] = system: barnyardgrass (Echinochloa crus-galli); assay: Test B flooded paddy test, barnyardgrass; details: Flood, 250 g ai/ha; scale of 0 to 100 where 0 is no effect and 100 is complete control; 13 to 15 d
Summary of the method: (§2)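 Plants at the 2-leaf stage were flooded to 3 cm above soil, and test compounds were applied directly into the paddy water, which was held at that depth throughout. After 13 to 15 d in a greenhouse, injury was rated visually against untreated controls on a 0–100 scale (0 no effect, 100 complete control).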

[17] = system: ducksalad (Heteranthera limosa); assay: Test B flooded paddy test, ducksalad; details: Flood, 250 g ai/ha; scale of 0 to 100 where 0 is no effect and 100 is complete control; 13 to 15 d
Summary of the method: as §2

rice (Oryza sativa) = assay: Test B flooded paddy test, rice; details: Flood, 250 g ai/ha; scale of 0 to 100 where 0 is no effect and 100 is complete control; 13 to 15 d
Summary of the method: as §2

[18] = system: sedge, umbrella (small-flower umbrella sedge, Cyperus difformis); assay: Test B flooded paddy test, sedge, umbrella; details: Flood, 250 g ai/ha; scale of 0 to 100 where 0 is no effect and 100 is complete control; 13 to 15 d
Summary of the method: as §2

SMILES	Plant response rating, Barnyardgrass ([1]; 125 g ai/ha)	Plant response rating, Barnyardgrass ([1]; 500 g ai/ha)	Plant response rating, Kochia (kochia (Kochia scoparia) [2]; 125 g ai/ha)	Plant response rating, Kochia (kochia (Kochia scoparia) [2]; 500 g ai/ha)	Plant response rating, Ragweed ([3]; 125 g ai/ha)	Plant response rating, Ragweed ([3]; 500 g ai/ha)	Plant response rating, Ryegrass, It. ([4]; 125 g ai/ha)	Plant response rating, Ryegrass, It. ([4]; 500 g ai/ha)	Plant response rating, Foxtail, Giant ([5]; 125 g ai/ha)	Plant response rating, Foxtail, Giant ([5]; 500 g ai/ha)	Plant response rating, Pigweed ([6]; 125 g ai/ha)	Plant response rating, Pigweed ([6]; 500 g ai/ha)	Plant response rating, Barnyardgrass ([7]; 125 g ai/ha)	Plant response rating, Barnyardgrass ([7]; 500 g ai/ha)	Plant response rating, Kochia (kochia (Kochia scoparia) [8]; 125 g ai/ha)	Plant response rating, Kochia (kochia (Kochia scoparia) [8]; 500 g ai/ha)	Plant response rating, Ragweed ([9]; 125 g ai/ha)	Plant response rating, Ragweed ([9]; 500 g ai/ha)	Plant response rating, Ryegrass, It. ([10]; 125 g ai/ha)	Plant response rating, Ryegrass, It. ([10]; 500 g ai/ha)	also measured
O=C1NCC(/C=C/c2ccccc2F)C1C(=O)Nc1cccc(F)c1F (stereo not drawn) [Compound 28]	50	90	0	0	0	0	0	0	50	90	0	0	50	70	0	0	0	0	0	0	Plant response rating, Foxtail, Giant ([11]; 125 g ai/ha): 20; Plant response rating, Foxtail, Giant ([11]; 500 g ai/ha): 50; Plant response rating, Wheat ([12]; 125 g ai/ha): 0; Plant response rating, Wheat ([12]; 500 g ai/ha): 0; Plant response rating, Corn (corn (Zea mays); 125 g ai/ha): 0; Plant response rating, Corn (corn (Zea mays); 500 g ai/ha): 0; Plant response rating, Pigweed ([13]; 125 g ai/ha): 0; Plant response rating, Pigweed ([13]; 500 g ai/ha): 0; Plant response rating, Blackgrass ([14]; 125 g ai/ha): 0; Plant response rating, Blackgrass ([14]; 500 g ai/ha): 0; Plant response rating, Galium ([15]; 125 g ai/ha): 0; Plant response rating, Galium ([15]; 500 g ai/ha): 20; Plant response rating, Barnyardgrass [16]: 90; Plant response rating, Ducksalad [17]: 90; Plant response rating, Rice (rice (Oryza sativa)): 10; Plant response rating, Sedge, Umbrella [18]: 50
O=C1NCC(C#Cc2cccc(Cl)c2)C1C(=O)Nc1ccccc1F (stereo not drawn) [Compound 29]	30	70	0	0	0	0	0	0	0	60	0	0	0	60	0	0	0	0	0	0	Plant response rating, Foxtail, Giant ([11]; 125 g ai/ha): 0; Plant response rating, Foxtail, Giant ([11]; 500 g ai/ha): 60; Plant response rating, Wheat ([12]; 125 g ai/ha): 0; Plant response rating, Wheat ([12]; 500 g ai/ha): 0; Plant response rating, Corn (corn (Zea mays); 125 g ai/ha): 0; Plant response rating, Corn (corn (Zea mays); 500 g ai/ha): 0; Plant response rating, Pigweed ([13]; 125 g ai/ha): 0; Plant response rating, Pigweed ([13]; 500 g ai/ha): 0; Plant response rating, Blackgrass ([14]; 125 g ai/ha): 0; Plant response rating, Blackgrass ([14]; 500 g ai/ha): 0; Plant response rating, Galium ([15]; 125 g ai/ha): 0; Plant response rating, Galium ([15]; 500 g ai/ha): 0; Plant response rating, Barnyardgrass [16]: 0; Plant response rating, Ducksalad [17]: 75; Plant response rating, Rice (rice (Oryza sativa)): 0; Plant response rating, Sedge, Umbrella [18]: 0
O=C1NCC(/C=C/c2cccc(F)c2)C1C(=O)Nc1cccc(F)c1F (stereo not drawn) [Compound 30]	50	90	70	80	0	0	0	0	60	90	0	0	50	80	0	0	0	0	0	0	Plant response rating, Foxtail, Giant ([11]; 125 g ai/ha): 40; Plant response rating, Foxtail, Giant ([11]; 500 g ai/ha): 80; Plant response rating, Wheat ([12]; 125 g ai/ha): 0; Plant response rating, Wheat ([12]; 500 g ai/ha): 20; Plant response rating, Corn (corn (Zea mays); 125 g ai/ha): 0; Plant response rating, Corn (corn (Zea mays); 500 g ai/ha): 20; Plant response rating, Pigweed ([13]; 125 g ai/ha): 0; Plant response rating, Pigweed ([13]; 500 g ai/ha): 0; Plant response rating, Blackgrass ([14]; 125 g ai/ha): 0; Plant response rating, Blackgrass ([14]; 500 g ai/ha): 0; Plant response rating, Galium ([15]; 125 g ai/ha): 0; Plant response rating, Galium ([15]; 500 g ai/ha): 20; Plant response rating, Barnyardgrass [16]: 70; Plant response rating, Ducksalad [17]: 95; Plant response rating, Rice (rice (Oryza sativa)): 15; Plant response rating, Sedge, Umbrella [18]: 0
O=C1NCC(/C=C/c2ccc(F)cc2)C1C(=O)Nc1cccc(F)c1F (stereo not drawn) [Compound 31]	0	70	0	20	0	0	0	0	20	70	0	0	30	70	0	30	0	20	0	20	Plant response rating, Foxtail, Giant ([11]; 125 g ai/ha): 30; Plant response rating, Foxtail, Giant ([11]; 500 g ai/ha): 60; Plant response rating, Wheat ([12]; 125 g ai/ha): 0; Plant response rating, Wheat ([12]; 500 g ai/ha): 0; Plant response rating, Corn (corn (Zea mays); 125 g ai/ha): 0; Plant response rating, Corn (corn (Zea mays); 500 g ai/ha): 20; Plant response rating, Pigweed ([13]; 125 g ai/ha): 0; Plant response rating, Pigweed ([13]; 500 g ai/ha): 0; Plant response rating, Blackgrass ([14]; 125 g ai/ha): 0; Plant response rating, Blackgrass ([14]; 500 g ai/ha): 0; Plant response rating, Galium ([15]; 125 g ai/ha): 0; Plant response rating, Galium ([15]; 500 g ai/ha): 30; Plant response rating, Barnyardgrass [16]: 40; Plant response rating, Ducksalad [17]: 80; Plant response rating, Rice (rice (Oryza sativa)): 15; Plant response rating, Sedge, Umbrella [18]: 50
